# Results as given in patent US20260374781A1, “NOVEL TRIHETEROCYCLIC COMPOUNDS” (IDENCE CO., LTD., priority 2022, published 2026).
# System: AsPC-1 cells
# Assay: Cell Proliferation Assay, AsPC-1 (CellTiter-Glo 2.0 viability)
# Assay type: cell-based
# Settings: AsPC-1 pancreatic cancer (KRAS G12D mutation)
# Experimental: Test Example 3: Cell Proliferation Assay
# Cell viability testing of test compounds in AsPC-1 pancreatic cancer (KRAS G12D mutation) or SW480 colon cancer (KRAS G12V mutation) cells for 72 hours
# The reference compound Staurosporine was purchased from Sigma-Aldrich (Saint Louis, MI), and CellTiter-Glo® 2.0 Luminescent cell viability assay reagent (cat #G9243) was purchased from Promega (Madison, WI). AsPC-1 and SW480 cell lines were purchased from American Type Culture Collection (Manassas, VA). AsPC-1 cells were cultured with RPMI-1640 (ATCC, cat #30-2001) and SW480 cells were cultured with DMEM (ATCC cat #30-2002).
# A medium supplemented with 10% FBS (Sigma-Aldrich, cat #F2442) and 100 µg/mL of penicillin-streptomycin (Sigma-Aldrich, cat #P4333) was used. Cells were cultured at 37 °C in a humidified atmosphere of 5% CO2 and 95% air.
# • 1. The test compound and reference compound, Staurosporine were dissolved in DMSO solution to prepare 20 mM (test compound) and 10 mM (control compound, Staurosporine) in the Source Plate and diluted with DMSO to 3-fold and 10 doses. • 2. From the Source Plate, 10 volumes of 125 nL test compound or 25 nL reference compound were dispensed into wells of a 384-well culture plate (VWR, cat #82050-076) using Echo 655. • 3. 25 μL of culture medium including 2000 AsPC-1 or SW480 cells was dispensed into each 384-well cell culture plate. • 4. Cells were cultured with the compound for 72 hours at 37 °C and 5% CO2 conditions. • 5. 25 μL of CellTiter-Glo 2.0 reagent was added to each well of the plate. • 6. The contents were mixed for 2 minutes on an orbital shaker, and the luminescence signal was stabilized at room temperature for 15 minutes. • 7. Luminescence signals were measured with an Envision 2104 Multilabel Reader (PerkinElmer, Santa Clara, CA), and the number of surviving cells was determined through quantification of ATP present in each culture. • 8. IC50 values were calculated based on the Sigmoidal dose-response equation in the GraphPad Prism 4 program.
SMILES,"IC50 (Homo sapiens, ASPC1, 72 h) [µM]",IC50 (72 hours) [µM]
"C#Cc1c(F)ccc2cc(O)cc(-c3nc4c5c(nc(OCC67CC(=C)CN6CC(=C)C7)nc5c3F)N(C(C)c3cccnc3N)C[C@H](C)O4)c12 (stereo partly drawn) [Example 4, 4-((8S)-10-(1-(2-aminopyridin-3-yl)ethyl)-2-((2,6-dimethylenetetrahydro-1H-pyrrolizin-7a(5H)-yl)methoxy)-4-fluoro-8-methyl-9,10-dihydro-8H-7-oxa-1,3,6,10-tetraazacyclohepta[de]naphthalen-5-yl)-5-ethynyl-6-fluoronaphthalen-2-ol]",> 10,–
"C#Cc1c(F)ccc2cc(O)cc(-c3nc4c5c(nc(OCC6(CN7CCOCC7)CC6)nc5c3F)N(C(C)c3cccnc3N)C[C@H](C)O4)c12 (stereo partly drawn) [Example 5, 4-((8S)-10-(1-(2-aminopyridin-3-yl)ethyl)-4-fluoro-8-methyl-2-((1-(morpholinomethyl)cyclopropyl)methoxy)-9,10-dihydro-8H-7-oxa-1,3,6,10-tetraazacyclohepta[de]naphthalen-5-yl)-5-ethynyl-6-fluoronaphthalen-2-ol]",> 10,–
"C[C@H]1CN([C@@H](C)c2cccnc2N)c2nc(OC[C@@]34CCCN3C[C@H](F)C4)nc3c(F)c(-c4cc(O)cc5ccc(F)c(F)c45)nc(c23)O1 [Example 10b, 4-((S)-10-((S)-1-(2-aminopyridin-3-yl)ethyl)-4-fluoro-2-(((2R,7aS)-2-fluorotetrahydro-1H-pyrrolizin-7a(5H)-yl)methoxy)-8-methyl-9,10-dihydro-8H-7-oxa-1,3,6,10-tetraazacyclohepta[de]naphthalen-5-yl)-5,6-difluoronaphthalen-2-ol]",> 10,–
"CC(c1cccnc1N)N1C[C@H](C)Oc2nc(-c3cc(O)cc(Cl)c3C3CC3)c(F)c3nc(OC[C@@]45CCCN4C[C@H](F)C5)nc1c23 (stereo partly drawn) [Example 11, 3-((8S)-10-(1-(2-aminopyridin-3-yl)ethyl)-4-fluoro-2-(((2R,7aS)-2-fluorotetrahydro-1H-pyrrolizin-7a(5H)-yl)methoxy)-8-methyl-9,10-dihydro-8H-7-oxa-1,3,6,10-tetraazacyclohepta[de]naphthalen-5-yl)-5-chloro-4-cyclopropylphenol]",> 10,–
"C=C1CN2CC(=C)CC2(COc2nc3c4c(nc(-c5cc(O)cc6ccc(F)c(CC)c56)c(F)c4n2)OCCN3C(C)c2cccnc2N)C1 (centres unmarked) [Example 19, 4-(10-(1-(2-aminopyridin-3-yl)ethyl)-2-((2,6-dimethylenetetrahydro-1H-pyrrolizin-7a(5H)-yl)methoxy)-4-fluoro-9,10-dihydro-8H-7-oxa-1,3,6,10-tetraazacyclohepta[de]naphthalen-5-yl)-5-ethyl-6-fluoronaphthalen-2-ol]",1 to 10,–
"CCc1c(F)ccc2cc(O)cc(-c3nc4c5c(nc(OC[C@@]67CCCN6C[C@H](F)C7)nc5c3F)N(C(C)c3ccccc3N)CCO4)c12 (stereo partly drawn) [Example 21, 4-(10-(1-(2-aminophenyl)ethyl)-4-fluoro-2-(((2R,7aS)-2-fluorotetrahydro-1H-pyrrolizin-7a(5H)-yl)methoxy)-9,10-dihydro-8H-7-oxa-1,3,6,10-tetraazacyclohepta[de]naphthalen-5-yl)-5-ethyl-6-fluoronaphthalen-2-ol]",> 10,–
"CCc1c(F)ccc2cc(O)cc(-c3nc4c5c(nc(OCC6(CN7CC[C@@H](F)C7)CC6)nc5c3F)N(C(C)c3cccnc3N)CCO4)c12 (stereo partly drawn) [Example 26, 4-(10-(1-(2-aminopyridin-3-yl)ethyl)-4-fluoro-2-((1-(((R)-3-fluoropyrrolidin-1-yl)methyl)cyclopropyl)methoxy)-9,10-dihydro-8H-7-oxa-1,3,6,10-tetraazacyclohepta[de]naphthalen-5-yl)-5-ethyl-6-fluoronaphthalen-2-ol]",1 to 10,–
"CCc1c(F)ccc2cc(O)cc(-c3nc4c5c(nc(OC[C@@]67CCCN6C[C@H](F)C7)nc5c3F)N(C)CCO4)c12 [Example 28, 5-ethyl-6-fluoro-4-(4-fluoro-2-(((2R,7aS)-2-fluorotetrahydro-1H-pyrrolizin-7a(5H)-yl)methoxy)-10-methyl-9,10-dihydro-8H-7-oxa-1,3,6,10-tetraazacyclohepta[de]naphthalen-5-yl)naphthalen-2-ol]",> 10,–

# Other lines, results leading:
"IC50 (Homo sapiens, ASPC1, 72 h) [µM]",IC50 (72 hours) [µM],SMILES
1 to 10,–,"C#Cc1c(F)ccc2cc(O)cc(-c3nc4c5c(nc(OC[C@@]67CCCN6C[C@H](F)C7)nc5c3F)N(C(C)c3cccnc3N)C[C@H](C)O4)c12 (mixture of isomers) [Example 6, 4-((8S)-10-(1-(2-aminopyridin-3-yl)ethyl)-4-fluoro-2-(((2R,7aS)-2-fluorotetrahydro-1H-pyrrolizin-7a(5H)-yl)methoxy)-8-methyl-9,10-dihydro-8H-7-oxa-1,3,6,10-tetraazacyclohepta[de]naphthalen-5-yl)-5-ethynyl-6-fluoronaphthalen-2-ol]"
> 10,–,"C#Cc1c(F)ccc2cc(O)cc(-c3nc4c5c(nc(OC[C@@]67CCCN6C[C@H](F)C7)nc5c3F)N([C@@H](C)c3cccnc3N)C[C@H](C)O4)c12 [Example 6b, 4-((S)-10-((S)-1-(2-aminopyridin-3-yl)ethyl)-4-fluoro-2-(((2R,7aS)-2-fluorotetrahydro-1H-pyrrolizin-7a(5H)-yl)methoxy)-8-methyl-9,10-dihydro-8H-7-oxa-1,3,6,10-tetraazacyclohepta[de]naphthalen-5-yl)-5-ethynyl-6-fluoronaphthalen-2-ol]"
> 10,–,"C#Cc1c(F)ccc2cc(O)cc(-c3nc4c5c(nc(OCC6CC(F)(F)CN6C)nc5c3F)N(C(C)c3cccnc3N)C[C@H](C)O4)c12 (stereo partly drawn) [Example 7, 4-((8S)-10-(1-(2-aminopyridin-3-yl)ethyl)-2-((4,4-difluoro-1-methylpyrrolidin-2-yl)methoxy)-4-fluoro-8-methyl-9,10-dihydro-8H-7-oxa-1,3,6,10-tetraazacyclohepta[de]naphthalen-5-yl)-5-ethynyl-6-fluoronaphthalen-2-ol]"
> 10,–,"C#Cc1c(F)ccc2cc(O)cc(-c3nc4c5c(nc(OC[C@@H]6CCN6CC(F)F)nc5c3F)N(C(C)c3cccnc3N)C[C@H](C)O4)c12 (stereo partly drawn) [Example 8, 4-((8S)-10-(1-(2-aminopyridin-3-yl)ethyl)-2-(((S)-1-(2,2-difluoroethyl)azetidin-2-yl)methoxy)-4-fluoro-8-methyl-9,10-dihydro-8H-7-oxa-1,3,6,10-tetraazacyclohepta[de]naphthalen-5-yl)-5-ethynyl-6-fluoronaphthalen-2-ol]"
1 to 10,–,"C#Cc1c(F)ccc2cc(O)cc(-c3nc4c5c(nc(OCC67COC(C6)C7)nc5c3F)N(C(C)c3cccnc3N)C[C@H](C)O4)c12 (stereo partly drawn) [Example 9, 4-((8S)-2-((2-oxabicyclo[2.1.1]hexan-4-yl)methoxy)-10-(1-(2-aminopyridin-3-yl)ethyl)-4-fluoro-8-methyl-9,10-dihydro-8H-7-oxa-1,3,6,10-tetraazacyclohepta[de]naphthalen-5-yl)-5-ethynyl-6-fluoronaphthalen-2-ol]"
–,> 10,"C#Cc1c(F)ccc2cc(O)cc(-c3nc4c5c(nc(OC[C@@]67CCCN6C[C@H](F)C7)nc5c3F)N([C@@H](C)c3cccnc3N)CCO4)c12 [Example 13b, 4-(10-((S)-1-(2-aminopyridin-3-yl)ethyl)-4-fluoro-2-(((2R,7aS)-2-fluorotetrahydro-1H-pyrrolizin-7a(5H)-yl)methoxy)-9,10-dihydro-8H-7-oxa-1,3,6,10-tetraazacyclohepta[de]naphthalen-5-yl)-5-ethynyl-6-fluoronaphthalen-2-ol]"
1 to 10,–,"CCc1c(F)ccc2cc(O)cc(-c3nc4c5c(nc(OC[C@@]67CCCN6C[C@H](F)C7)nc5c3F)N([C@@H](C)c3cccnc3N)CCO4)c12 [Example 14b, 4-(10-((S)-1-(2-aminopyridin-3-yl)ethyl)-4-fluoro-2-(((2R,7aS)-2-fluorotetrahydro-1H-pyrrolizin-7a(5H)-yl)methoxy)-9,10-dihydro-8H-7-oxa-1,3,6,10-tetraazacyclohepta[de]naphthalen-5-yl)-5-ethyl-6-fluoronaphthalen-2-ol]"
1 to 10,–,"C#Cc1c(F)ccc2cc(O)cc(-c3nc4c5c(nc(OC[C@@H]6CC(F)(F)CN6C)nc5c3F)N(C(C)c3cccnc3N)CCO4)c12 (stereo partly drawn) [Example 15, 4-(10-(1-(2-aminopyridin-3-yl)ethyl)-2-(((S)-4,4-difluoro-1-methylpyrrolidin-2-yl)methoxy)-4-fluoro-9,10-dihydro-8H-7-oxa-1,3,6,10-tetraazacyclohepta[de]naphthalen-5-yl)-5-ethynyl-6-fluoronaphthalen-2-ol]"
> 10,–,"CCc1c(F)ccc2cc(O)cc(-c3nc4c5c(nc(OC[C@@H]6CCCN6CC(F)F)nc5c3F)N(C(C)c3cccnc3N)CCO4)c12 (stereo partly drawn) [Example 27, 4-(10-(1-(2-aminopyridin-3-yl)ethyl)-2-(((S)-1-(2,2-difluoroethyl)pyrrolidin-2-yl)methoxy)-4-fluoro-9,10-dihydro-8H-7-oxa-1,3,6,10-tetraazacyclohepta[de]naphthalen-5-yl)-5-ethyl-6-fluoronaphthalen-2-ol]"
